According to patent US6429212B1, “Medicinal composition” (Ishihara Sangyo Kaisha Ltd., priority 1996, dated 2002):

What was measured:
[1] = test system: TNF-α production or secretion by human leukemia cells HL-60 (TPA stimulation); assay: Influence on TNF-α production or secretion by HL-60 cells stimulated by TPA (ELISA of supernatant); format: cell-based; settings: for amount of TNF-α in the supernatant, TPA alone = 100%: HL-60, TPA 10 nM, 16 hours (Table 9); for amount of TNF-α, TPA alone = 100%: HL-60, TPA stimulation (Table 11)
Method: (§1) Human leukemia cells HL-60 produce tumor necrosis factor (TNF-α) by stimulation of Okadaic acid (9,10-Deepithio-9,10-didehydroacanthifolicin) or 12O-tetradecanoyl phorbol-13-acetate (TPA). Influences of the compounds of the present invention to production or secretion of TNF-α by them were observed.
The same operation was carried out as in Test Example 1, except that TPA (produced by Sigma) having a final concentration of 10 nM was used, instead of Okadaic acid having a final concentration of 50 nM.
The values in the Table are values obtained by supposing the amount of TNF-α in the supernatant of the culture medium when treated only with TPA having a final concentration of 10 nM, 100%.
Human leukemia cells (HL-60) produce tumor necrosis factor (TNF-α) by stimulation of 12O-tetradecanoyl phorbol-13-acetate (TPA). The influences of the compounds of the present invention to production of TNF-αby it were observed.
(§2) Human leukemia cells (HL-60) were cultured by using a RPMI 1640 culture medium (including 5% fetal bovine serum), in a carbonic acid gas incubator (5% CO2, humidified, 37° C.). Then, the cells were pre-cultured in a RPMI 1640 culture medium (including 10% fetal bovine serum). TPA was added thereto, so that the final concentration was 10 nM based on the HL-60 cells (5×10^5 cells/ml) in an exponentially growing stage. Then, the compound of the present invention was added thereto so that the predetermined concentration could be obtained, to prepare a cell suspension, which was then cultured in a carbonic gas incubator (5% CO2, humidified, 37° C.). In this culture, a multiplate having 24 holes (produced by Corning) was used, and the cell suspension was injected in an amount of 0.5 ml per hole, to culture the cells.
16 hours after the culture started, the cells were removed by centrifugation(1000-2000 rpm×10 min), and the amount of TNF-α in the supernatant was measured in accordance with the method of Amersham, by using human TNF-α ELISA system (produced by Amersham).
The values are obtained by supposing the amount of TNF-α when treated only with TPA having a final concentration of 10 nM, 100%.
The influences of the compounds of the present invention to production or secretion of TNF-α by TPA stimulation were observed, in the same manner as in Test Example 2.

[2] = test system: TNF-α production or secretion by human leukemia cells HL-60 (Okadaic acid stimulation); assay: Influence on TNF-α production or secretion by HL-60 cells stimulated by Okadaic acid (ELISA of supernatant); format: cell-based; settings: HL-60, Okadaic acid 50 nM, 16 hours (Table 8)
Method: as §1
as §2, with “bovine serum). Okadaic acid was added” for “bovine serum). TPA was added”, “concentration was 50 nM based” for “concentration was 10 nM based”, “a carbonic acid gas incubator” for “a carbonic gas incubator”
16 hours after the culture started, the cells were removed by centrifugation (1000-2000 rpm×10 min), and the amount of TNF-α in the supernatant was measured in accordance with the method of Amersham, by using human TNF-α ELISA system (produced by Amersham).
The values in the Table are values obtained by supposing the amount of TNF-αin the supernatant of the culture medium when treated only with Okadaic acid having a final concentration of 50 nM, 100%.
Influences of the compounds of the present invention to production or secretion of TNF-α by Okadaic acid stimulation were observed, in the same manner as in Test Example 1.

[3] = test system: angiogenesis under skin of mice; assay: Angiogenesis under skin of mice (b-FGF matrigel, amount of hemoglobin); format: in vivo, BALB/c male mice; design: key to Amount of hemoglobin, value in parentheses (Control = 100): % of control (control = 100), hemoglobin per matrigel; settings: for Amount of hemoglobin, value in parentheses (Control = 100): experiment (b) (Table 15); for Amount of hemoglobin: experiment (b), Control 83.3 (Table 15)
Method: By subcutaneously injecting a mixture having recombinant human fibroblast growth factor-basic added to matrigel, to the back of a mice, angiogenesis occurs under skin of the mice. By measuring the amount of hemoglobin in matrigel, angiogenesis can be quantified. Influences of the compounds of the present invention to angiogenesis were observed.
Matrigel (trademark; basement membrane matrix, phenol is not included, purchased from Becton Dickinson Labware) was added to Dulbecco's modified Eagle's medium (purchased from Sigma), so that the concentration was 9 mg/ml. Recombinant Human Fibroblast Growth Factor-basic (b-FGF, produced by Intergen) was added thereto, so that the concentration was 2 μg/700 μl. The mixture was subcutaneously injected to 6-week BALB/c male mice (Charles River Japan Inc.) in an amount of 700 μl per mouse. Everyday after matrigel injection, a suspension having the compound of the present invention added to 0.8% Tween 80 (purchased from Nacalai Tesque), so that the predetermined concentration could be obtained, was intraperitoneally injected to the mice. 8 days after matrigel injection, matrigel was taken out from the mice, which was then placed in 200 μl of 1% NH4OH at room temperature for 4 hours, to extract hemoglobin. The extraction and matrigel together were subjected to centrifugal separation (10000 rpm, 5 min). 100 μl of the obtained supernatant and 500 μl of Drabkin's reagent (purchased from Sigma) were mixed and left at room temperature. After left more than 15 minutes, absorbance of the supernatant at a wavelength of 540 nm was measured by using a spectrophotometer SPECTRA max 250 (produced by Molecular Devices). The amount of hemoglobin in the supernatant was obtained from the standard curve prepared by using hemoglobin standard (purchased from Sigma), and the amount of hemoglobin per matrigel obtained from a mouse was calculated.
The amount of the hemoglobin in each treatment fraction was corrected by the amount of hemoglobin wherein matrigel having no b-FGF added was injected to the mice, and 0.8% Tween 80 as a solvent alone was injected everyday.
Influences of the compounds of the present invention to angiogenesis under skin of mice were observed, in the same manner as in Test Example 8.

Structure (SMILES)	melting point [°C]	amount of TNF-α in the supernatant, TPA alone = 100% ([1]; compound 10 nM) [%]	amount of TNF-α in the supernatant, TPA alone = 100% ([1]; compound 100 nM) [%]	amount of TNF-α in the supernatant, TPA alone = 100% ([1]; compound 0.3 μM) [%]	amount of TNF-α in the supernatant, Okadaic acid alone = 100% ([2]; compound 1 nM) [%]	amount of TNF-α in the supernatant, Okadaic acid alone = 100% ([2]; compound 10 nM) [%]	amount of TNF-α in the supernatant, Okadaic acid alone = 100% ([2]; compound 100 nM) [%]	amount of TNF-α in the supernatant, Okadaic acid alone = 100% ([2]; compound 0.3 μM) [%]	amount of TNF-α, TPA alone = 100% ([1]; compound 10 μM) [%]	Amount of hemoglobin, value in parentheses (Control = 100) ([3]; 5 mg/kg)	Amount of hemoglobin ([3]; 5 mg/kg) [μg/gel]	Amount of hemoglobin, value in parentheses (Control = 100) ([3]; 1 mg/kg)	Amount of hemoglobin ([3]; 1 mg/kg) [μg/gel]	amount of TNF-α, TPA alone = 100% ([1]; compound 100 μM) [%]
C[C@@H](c1ccccc1)N1C(=O)c2cccc([N+](=O)[O-])c2C1=O [Compound 83, (S)-2-(1-phenylethyl)-4-nitro-1H-isoindole-1,3-dione]	115 to 117	122	187	239	100	99	85	61						
C[C@H](c1cccc2ccccc12)N1C(=O)c2c(F)c(F)c(F)c(F)c2C1=O [Compound 50, (R)-2-(1-naphthylethyl)-4,5,6,7-tetrafluoro-1H-isoindole-1,3-dione]		100	100	100	100	88	43	2		79	65.4			
C[C@H](c1ccccc1)N1C(=O)c2cccc([N+](=O)[O-])c2C1=O [Compound 84, (R)-2-(1-phenylethyl)-4-nitro-1H-isoindole-1,3-dione]	115 to 117	100	121	195	99	104	88	52						
C[C@H](c1ccccc1)N1C(=O)c2c(F)c(F)c(F)c(F)c2C1=O [Compound 18, (R)-2-(1-phenylethyl)-4,5,6,7-tetrafluoro-1H-isoindole-1,3-dione]		100	101	97	97	55	8	2		78	65.1			
C[C@H](C1CCCCC1)N1C(=O)c2c(F)c(F)c(F)c(F)c2C1=O [Compound 69, (R)-2-(1-cyclohexylethyl)-4,5,6,7-tetrafluoro-1H-isoindole-1,3-dione]		100	102	98	101	95	59	10		49	41.1	93	77.2	
CC(C)c1cccc(C(C)C)c1N1Cc2ccccc2C1 [Compound 144, N-(2,6-diisopropylphenyl)isoindoline]	130.9 to 132													319

Continued, in another order:

melting point [°C]	Structure (SMILES)	amount of TNF-α in the supernatant, TPA alone = 100% ([1]; compound 10 nM) [%]	amount of TNF-α in the supernatant, TPA alone = 100% ([1]; compound 100 nM) [%]	amount of TNF-α in the supernatant, TPA alone = 100% ([1]; compound 0.3 μM) [%]	amount of TNF-α in the supernatant, Okadaic acid alone = 100% ([2]; compound 1 nM) [%]	amount of TNF-α in the supernatant, Okadaic acid alone = 100% ([2]; compound 10 nM) [%]	amount of TNF-α in the supernatant, Okadaic acid alone = 100% ([2]; compound 100 nM) [%]	amount of TNF-α in the supernatant, Okadaic acid alone = 100% ([2]; compound 0.3 μM) [%]	amount of TNF-α, TPA alone = 100% ([1]; compound 10 μM) [%]	Amount of hemoglobin, value in parentheses (Control = 100) ([3]; 5 mg/kg)	Amount of hemoglobin ([3]; 5 mg/kg) [μg/gel]	Amount of hemoglobin, value in parentheses (Control = 100) ([3]; 1 mg/kg)	Amount of hemoglobin ([3]; 1 mg/kg) [μg/gel]	amount of TNF-α, TPA alone = 100% ([1]; compound 100 μM) [%]
162.9 to 163.2	Cc1ccc2c(c1)C(=O)N(c1c(C(C)C)cccc1C(C)C)C2=O [Compound 171]								421					
234 to 234.8	CC(C)c1cccc(C(C)C)c1N1C(=O)c2ccc(C(C)(C)C)cc2C1=O [Compound 173, N-(2,6-diisopropylphenyl)-5-tert-butyl phthalimide]								251					
117 to 118	CCCCCCOc1ccc2c(c1)C(=O)N(c1c(C(C)C)cccc1C(C)C)C2=O [Compound 193]													
175 to 177	CSc1ccccc1N1C(=O)c2ccc(C)cc2C1=O [Compound 195]													
